These results are taken from patent publication US20220411397A1, “ANALOGUES OF N-ACYL-HOMOSERINE LACTONES AND PHARMACEUTICAL COMPOSITION COMPRISING SAME” (SORBONNE UNIVERSITE, priority 2019, published 2022).

One data set relates to human keratinocytes. Description: Inhibition of IL-8 secretion by human keratinocytes stimulated by IL-17 and TNF-α. In kind it is cell-based. Particulars: keratinocytes stimulated by IL-17 and TNF-α.
Data set [1] can be described thus: Resistance to hydrolysis giving the open form. In kind it is physicochemical.
A further data set relates to Caco-2/TC7 cells. In words: Cytotoxicity test, LDH secretion, Caco-2/TC7. In kind it is cell-based. Particulars: for cytotoxicity (LDH), Caco-2/TC7: stimulated, low concentrations; for LDH secretion at the higher concentrations: ≥50 μM. The method, then:
(§1) 1.2.6. […] To measure the concentration of LDH in the cell lysate, 800 μL of NADH was added to 10 μL of […] and 190 μL of 0.1 M PBS in a plastic cuvette, and the decrease in the absorbance at 340 nm was monitored for 1 min. […] The percentage of cytotoxicity could be established with the formula: […]
(§2) The cytotoxicity of the tested and control compounds was evaluated using a measurement test of the LDH (Lactate Dehydrogenase) secretion. This test is based on the measurement of the amount of LDH secreted by the cells in their supernatant, compared to the amount of LDH that will remain in the intracellular compartment. This ratio provides an indication of the membrane damage suffered by the cells, and thus of the cytotoxicity of the compound.
(§3) Two methods were used to perform this test: the measurement using an extemporaneously prepared pyruvate/NADH solution, or using the Cytotoxicity Detection Kit^PLUS(LDH) from the manufacturer Roche (Sigma-Aldrich).
(§4) Pyruvate/NADH method: pyruvate/NADH solution prepared with 4.1 mg pyruvic acid (0.62 mM) and 7.7 mg NADH (0.18 mM) in 60 ml of 0.1M PBS (pH 7.4).
(§5) For the measurement of the LDH concentration in the supernatants, 800 μL of NADH was added to 200 μL of supernatant in plastic spectrometry cuvettes, and the decrease in absorbance of the final solution was read at 340 nm for 1 min. For the measurement of the LDH concentration in the cell lysates, 800 μL of NADH was added to 10 μL of cell lysates and 190 μL of 0.1M PBS in plastic spectrometry cuvettes, and the decrease in absorbance of the final solution was read at 340 nm for 1 min. The percentage of LDH secreted was then calculated by the ratio of the decay slopes of the absorbance of the supernatants and of the cell lysates (respectively).
(§6) Cytotoxicity Detection Kit^PLUS (LDH) method: absorbance test performed according to the manufacturer's instructions. The percentage of LDH secreted was then calculated by the formula: […]

For a further data set, the system named is human lymphocytes. Description: Inhibition of IL-2 secretion by human lymphocytes stimulated by CD2, CD3 and CD28. In kind it is cell-based. Conditions: lymphocytes stimulated by CD2, CD3 and CD28.
In another data set the target is T1, LasR receptor (Pseudomonas aeruginosa, UniProt P25084).
T1 construct: expressed in transfected cells; host or cells: Escherichia coli carrying plasmid pSB1075
T1 sequence (P25084 whole entry): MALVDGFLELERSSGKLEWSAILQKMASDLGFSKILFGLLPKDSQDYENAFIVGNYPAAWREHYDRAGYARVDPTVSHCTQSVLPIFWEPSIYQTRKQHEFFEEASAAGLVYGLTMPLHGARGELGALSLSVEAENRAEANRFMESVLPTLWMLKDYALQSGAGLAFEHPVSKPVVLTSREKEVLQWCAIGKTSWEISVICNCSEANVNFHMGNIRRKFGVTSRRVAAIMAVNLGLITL
Description: Activation of the LasR receptor on bacterial reporter strain E. coli pSB1075 (bioluminescence). In kind it is cell-based. From the text:
1.1.3. The Bacterial Reporter Strain E. coli pSB1075 • A bacterial reporter strain of the Quorum Sensing was used to study the ability of the molecules to be recognized by the Pseudomonas aeruginosa AHL receptor (LasR) and induce an activation. […] This bioluminescent strain was modified by addition of a plasmid pSB1075. This plasmid contains genes encoding both tetracycline resistance and the expression of the LasR AHL receptor from the Pseudomonas aeruginosa bacteria, as well as a fusion gene derived from the LasR promoter and the luxCDABE gene from Photorhabdus luminescence. The bacterial strain was grown in the LB medium supplemented with 5 μg/ml tetracycline to exert a selection pressure and ensure that only the desired strain was amplified. The fusion gene included in the plasmid gives the bacteria the ability to emit a bioluminescence when the LasR receptor is activated, and provides the user with a robust test for the molecular screening. […] On day 1, the culture was diluted 1:100 (P1) in 10 ml of LB medium supplemented with 5 μg/ml tetracycline and maintained for 24 hours at 37° C. under stirring at 70 rpm. On day 2, the experiment took place: a bacterial suspension extemporaneously diluted 1:10 in LB medium supplemented with 5 μg/ml tetracycline (P2) was dispensed into a black opaque 96-well plate and incubated for 4 hours with a range of AHL concentrations or controls until the resulting luminescence was read at the end point. All experiments were performed in triplicates.
1.3. […] This bioluminescent strain was developed by the addition of a plasmid pSB1075 containing genes encoding the tetracycline resistance and the expression of the LasR AHL receptor, as well as a fusion gene of the LasR promoter and the luxCDABE gene of Photorhabdus luminescence. • On day 1, a 1/100 dilution of the bacterial strain (P1) was grown for 24 hours at 37° C. under stirring (70 rpm) in a LB medium containing 5 μg/ml tetracycline (pressure selective). On day 2, P1 was diluted 1:10 in the same medium to obtain P2. In a black 96-well plate were placed 200 μL of P2 and 10 μL of the short chain compound (medium, water and DMSO for the negative controls, C4-HSL as positive control, and the test sample at the desired concentration). The plate was incubated for 4 hours at 37° C. under stirring at 70 rpm. […] After that, the incubation was continued according to the conventional protocol, with the test compound at the desired concentrations.

The next data set concerns E. coli K12 strain. In words: Bactericidal dosage on the E. coli K12 strain (absorbance at 600 nm). The class given is cell-based. Conditions: all concentrations, maximum 100 μM shown; 18 h. The method, then: 1.1.4. Bactericidal Dosage • The K12 strain of E. coli was grown on agar on day 0 and a colony was transferred to the LYBHI liquid bacterial culture medium on day 1. On day 2, the colony was diluted 1:100 in LYBHI medium and amplified for 18 hours before transfer to an opaque 96-well plate. In each well, LYBHI, controls or increasing doses of tested molecules and bacteria were distributed. The absorbance at 600 nm was read at start-up (t=0) and after an 18-hour incubation. The raw absorbance values were corrected using the absorbance of solutions without bacteria. All experiments were performed twice, each with 4 replicates.
The E. coli K12 strain was cultured at D0 on agar gel, and then a selected colony was transferred to a liquid bacterial culture LYBHI medium at D1. At day 2, this colony was diluted 1:100 in LYBHI medium, and maintained for 18 hours for expansion before distribution in an opaque 96-well plate. In each well were distributed: LYBHI medium, bacterial culture, and test or control compounds. The absorbance of the wells was read at 600 nm at t0 and t18h. The raw absorbance values were corrected against the absorbance of the wells containing only LYBHI medium without bacteria or compounds.

For the next data set, the system named is Raw264.7 murine cells. Description: Cytotoxicity test, LDH secretion, Raw264.7. In kind it is cell-based. Conditions: for cytotoxicity (LDH), Raw264.7: stimulated, low concentrations. The method, then: as §1, §2, §3, §4, §5, §6
The mark [2] stands for this setting: any of the concentrations tested.

Take `CCCCCCCCCC(=O)CC(=O)N[C@H]1CCCC[C@@H]1O` [I-2, N-[(1S,2S)-2-hydroxycyclohexyl]-3-oxo-dodecanamide]: the 50% effective concentration (EC50) (as a rule, the concentration giving half of the maximal effect) in the data set on human keratinocytes (Homo sapiens, Keratinocyte, read-out: relative EC50, inhibition of IL-8 secretion) was 0.111 µM; with human lymphocytes (Homo sapiens, Lymphocyte, read-out: relative EC50, inhibition of IL-2 secretion), 0.0899 µM; at LasR receptor, 0.165 µM. The “maximum inhibition as % of the inhibition obtained with the reference compound betamethasone” value was 39% in the data set with human keratinocytes (IL-8 secretion) and 46% in the data set with human lymphocytes (IL-2 secretion). Also, the “resistance to hydrolysis (enzymatic and spontaneous)” value in data set [1] is “resistant to the hydrolysis giving an open form (both enzymatic and spontaneous)”. Besides, the “cytotoxicity (LDH), Caco-2/TC7” value in the data set on Caco-2/TC7 cells was “not cytotoxic at low concentrations”. In addition, the “LDH secretion at the higher concentrations” value in the data set on Caco-2/TC7 cells is reported as “not as significant”. In addition, the “comparative survival of E. coli K12” value in the data set on E. coli K12 strain is given as “No significant differences”. Also, the “cytotoxicity (LDH), Raw264.7” value in the data set on Raw264.7 murine cells is given as “not cytotoxic at low concentrations”.

In the data set with Caco-2/TC7 cells (Caco-2/TC7, at 100 μM), `CCCCCCCCCC(=O)CC(=O)N[C@H]1CCCC[C@H]1O` [I-4, N-[(1S,2R)-2-hydroxycyclohexyl]-3-oxo-dodecanamide] came in with an LDH secretion of 9%. In the data set on Caco-2/TC7 cells, the “cytotoxicity (LDH), Caco-2/TC7” value is “not cytotoxic at low concentrations” and the “LDH secretion at the higher concentrations” value was “an increase in LDH secretion”. At LasR receptor, this compound gave a 50% effective concentration (EC50) of 200 µM. In addition, the “comparative survival of E. coli K12” value with E. coli K12 strain is “No significant differences”. The “toxicity (LDH), Raw264.7” value in the data set with Raw264.7 murine cells (at 50 μM) was “toxic”. The “LDH secreted compared with the diastereomer, Raw264.7” value in the data set on Raw264.7 murine cells (at all concentrations) is given as “greater than that secreted in the presence of (S,S)-3oxoC12-ACH”. Moreover, the “cytotoxicity (LDH), Raw264.7” value in the data set with Raw264.7 murine cells is reported as “not cytotoxic at low concentrations”.

`CCCCCCCCCC(=O)CC(=O)Nc1cc(Cl)ccc1O` [I-6, N-(5-chloro-2-hydroxyphenyl)-3-oxododecanamide]: the “toxicity (LDH), Caco-2/TC7” value with Caco-2/TC7 cells (setting [2]) was “not toxic”. Moreover, at LasR receptor, the EC50 was greater than 1000 µM. Further, the “comparative survival of E. coli K12” value in the data set with E. coli K12 strain is reported as “No significant differences”. In addition, in the data set with Raw264.7 murine cells (setting [2]), the “toxicity (LDH), Raw264.7” value is “not toxic”.
